Experimental data: patent US8546443B2, “Benzylic oxindole pyrimidines” (Boehringer Ingelheim International GmbH, priority 2010, dated 2013)

Key:
[1] = tested on: TC-71 (Ewing's sarcoma) cells; assay: Cell proliferation assay, TC-71 (Alamar Blue); type: cell-based; details: 72 h with compound, EC50 ranges as class symbols
Protocol: Cell Proliferation Assays
Compounds were tested for their anti-proliferative effects in the TC-71 (Ewing's sarcoma) and HCT 116 (colorectal carcinoma) cancer cell lines in vitro. Published scientific data has described that interference with the Insulin-like Growth Factor-1 Receptor (IGF-1R) signaling pathway reduces the proliferation of TC-71 cells. Therefore TC-71 cells served as a positive control cell line for monitoring the activity of compounds against IGF-1R-mediated cell proliferation. […] Therefore the HCT 116 cell line served as a negative control.
2000 TC-71 cells or 1000 HCT 116 cells were seeded per well in 180 μL IMDM+10% foetal calf serum (FCS)+ penicillin/streptomycin into 96-well microtitre plates. The plates were placed in a cell culture incubator (37° C. in a humidified atmosphere of […]/5 CO2) overnight. The following day, serial dilutions of compounds, prepared in duplicates, were transferred onto the cell layers (controls without compound). The cells were cultivated for a further 72 h in the cell culture incubator. 20 μL of Alamar Blue™ (Serotec Ltd, Düsseldorf, Germany) was added to each well and the plates incubated for 7 h in the cell culture incubator. Fluorescence (extinction wavelength of 544 nm and emission at 590 nm) was then measured and the normalized data fitted by iterative calculation with a sigmoidal curve analysis program (Graph Pad Prism) with a variable Hill slope to determine the IC50 values.

[2] = molecular target: T1, cytoplasmic kinase domain of human IGF-1R (IGF-1R-GST) (Homo sapiens, UniProt P08069); assay: Insulin-like growth factor-1 receptor (IGF-1R) kinase assay (DELFIA); type: biochemical; details: IGF-1R-GST kinase activity, read-out: IGF1R IC50
T1 construct: cytoplasmic kinase domain of human IGF-1R (amino acids 964-1370); GST (glutathione-S-transferase); made in house; host or cells: High Five insect cells (Invitrogen)
T1 sequence (P08069 964-1367 limits assumed): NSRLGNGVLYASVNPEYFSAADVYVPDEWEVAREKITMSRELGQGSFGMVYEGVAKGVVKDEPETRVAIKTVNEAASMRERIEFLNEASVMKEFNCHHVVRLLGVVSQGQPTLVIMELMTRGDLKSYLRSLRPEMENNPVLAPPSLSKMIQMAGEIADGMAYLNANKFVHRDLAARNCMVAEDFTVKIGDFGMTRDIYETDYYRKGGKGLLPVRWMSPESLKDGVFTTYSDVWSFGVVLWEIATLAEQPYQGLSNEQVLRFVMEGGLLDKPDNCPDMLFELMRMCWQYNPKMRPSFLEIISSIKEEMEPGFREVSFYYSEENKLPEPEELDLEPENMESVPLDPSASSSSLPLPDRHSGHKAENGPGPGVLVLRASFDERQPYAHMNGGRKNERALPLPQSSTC
How it was run: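 GST-tagged IGF-1R cytoplasmic kinase domain phosphorylates pEY with biotinylated pEY for 40 min at RT; EDTA stop. Product captured on streptavidin, detected with europium anti-phosphotyrosine antibody by DELFIA time-resolved fluorescence; IC50 from inhibition curves.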

SMILES | EC50 [1] | IC50 [2]
Cc1cc(C2CCN(C)CC2)ccc1Nc1ncc(Br)c(NCc2cccc3c2C(C)(C)C(=O)N3)n1 [Example I-103] | < 50 nM | 0.69 nM
COc1cc(N2CCN(C)CC2)ccc1Nc1ncc(C(F)(F)F)c(NCc2cccc3c2C(C)(C)C(=O)N3)n1 [Example I-104] | < 50 nM | 0.1 nM
COc1cc(N2CCN(C)CC2)ccc1Nc1ncc(C(F)(F)F)c(NCc2cccc3c2C2(CC2)C(=O)N3)n1 [Example I-160] | 250 to 3000 nM | 4 nM
Cc1cc(C2CCN(S(C)(=O)=O)CC2)ccc1Nc1ncc(Cl)c(NCc2cccc3c2C(C)(C)C(=O)N3)n1 [Example I-203] | 250 to 3000 nM | 14 nM
COCCN1CCC(c2ccc(Nc3ncc(Cl)c(NCc4cccc5c4C(C)(C)C(=O)N5)n3)cc2)CC1 [Example I-204] | 50 to 250 nM | 2 nM
COCCN1CCC(c2ccc(Nc3ncc(Br)c(NCc4cccc5c4C(C)(C)C(=O)N5)n3)cc2)CC1 [Example I-208] | 50 to 250 nM | 0.68 nM
CC1(C)C(=O)Nc2cccc(CNc3nc(Nc4ccc(C5CCN(CCO)CC5)cc4)ncc3Br)c21 [Example I-209] | 50 to 250 nM | 1 nM
CC(C)(O)CN1CCC(c2ccc(Nc3ncc(Br)c(NCc4cccc5c4C(C)(C)C(=O)N5)n3)cc2)CC1 [Example I-210] | < 50 nM | 0.47 nM
CC(C)(O)CN1CCC(c2ccc(Nc3ncc(Cl)c(NCc4cccc5c4C(C)(C)C(=O)N5)n3)cc2)CC1 [Example I-211] | 50 to 250 nM | 3 nM
CC1(C)C(=O)Nc2cccc(CNc3nc(Nc4ccc(C5CCN(CCCF)CC5)cc4)ncc3Br)c21 [Example I-212] | 50 to 250 nM | 3 nM
CC1(C)C(=O)Nc2cccc(CNc3nc(Nc4ccc(C5CCN(CCCF)CC5)cc4)ncc3Cl)c21 [Example I-213] | 50 to 250 nM | 4 nM
Cc1cc(C2CCN(CCO)CC2)ccc1Nc1ncc(Br)c(NCc2cccc3c2C(C)(C)C(=O)N3)n1 [Example I-214] | < 50 nM | 0.62 nM
COCCN1CCC(n2cc(Nc3ncc(Cl)c(NCc4cccc5c4C(C)(C)C(=O)N5)n3)cn2)CC1 [Example I-215] | 250 to 3000 nM | 12 nM
Cc1cc(C2CCN(CCS(C)(=O)=O)CC2)ccc1Nc1ncc(Cl)c(NCc2cccc3c2C(C)(C)C(=O)N3)n1 [Example I-216] | 50 to 250 nM | 2 nM
Cc1cc(C2CCN(CCO)CC2)ccc1Nc1ncc(Cl)c(NCc2cccc3c2C(C)(C)C(=O)N3)n1 [Example I-217] | 50 to 250 nM | 1 nM
COCCN1CCC(c2ccc(Nc3ncc(Cl)c(NCc4cccc5c4C(C)(C)C(=O)N5)n3)c(C)c2)CC1 [Example I-218] | < 50 nM | 1 nM
Cc1cc(C2CCN(CC(N)=O)CC2)ccc1Nc1ncc(Cl)c(NCc2cccc3c2C(C)(C)C(=O)N3)n1 [Example I-220] | 50 to 250 nM | 2 nM
COCCN1CCC(c2ccc(Nc3ncc(Br)c(NCc4cccc5c4C(C)(C)C(=O)N5)n3)c(C)c2)CC1 [Example I-221] | < 50 nM | 0.98 nM
COCC(=O)N1CCC(c2ccc(Nc3ncc(Cl)c(NCc4cccc5c4C(C)(C)C(=O)N5)n3)c(C)c2)CC1 [Example I-292] | 50 to 250 nM | 5 nM
CCNC(=O)N1CCC(c2ccc(Nc3ncc(Cl)c(NCc4cccc5c4C(C)(C)C(=O)N5)n3)c(C)c2)CC1 [Example I-293] | 50 to 250 nM | 10 nM
Cc1cc(C2CCN(C(N)=O)CC2)ccc1Nc1ncc(Cl)c(NCc2cccc3c2C(C)(C)C(=O)N3)n1 [Example I-294] | 250 to 3000 nM | 7 nM
CNC1(C(=O)N2CCC(c3ccc(Nc4ncc(Cl)c(NCc5cccc6c5C(C)(C)C(=O)N6)n4)c(C)c3)CC2)CC1 [Example I-295] | 50 to 250 nM | 4 nM
COc1cc(C2CCN(C(=O)CO)CC2)ccc1Nc1ncc(Cl)c(NCc2cccc3c2C(C)(C)C(=O)N3)n1 [Example I-296] | 50 to 250 nM | 1 nM
Cc1cc(C2CCN(C(=O)C(C)(C)O)CC2)ccc1Nc1ncc(Cl)c(NCc2cccc3c2C(C)(C)C(=O)N3)n1 [Example I-297] | 50 to 250 nM | 9 nM
Cc1cc(C2CCN(C(=O)CO)CC2)ccc1Nc1ncc(Cl)c(NCc2cccc3c2C(C)(C)C(=O)N3)n1 [Example I-298] | 50 to 250 nM | 7 nM

SMILES | EC50 [1] | IC50 [2]
CNC1(C(=O)N2CCC(c3ccc(Nc4ncc(Cl)c(NCc5cccc6c5C(C)(C)C(=O)N6)n4)cc3)CC2)CC1 [Example I-299] | < 50 nM | 8 nM
COc1cc(C2CCN(C(=O)C(C)(C)O)CC2)ccc1Nc1ncc(Cl)c(NCc2cccc3c2C(C)(C)C(=O)N3)n1 [Example I-300] | < 50 nM | 11 nM
COc1cc(C2CCN(CC(C)(C)O)CC2)ccc1Nc1ncc(C(F)(F)F)c(NCc2cccc3c2C(C)(C)C(=O)N3)n1 [Example I-302] | < 50 nM | 0.6 nM
Cc1cc(Nc2ncc(C(F)(F)F)c(NCc3cccc4c3C(C)(C)C(=O)N4)n2)ccc1C1CCN(CC(C)(C)O)CC1 [Example I-303] | < 50 nM | 0.2 nM
COc1cc(N2CCN(CC(C)(C)O)CC2)ccc1Nc1ncc(C(F)(F)F)c(NCc2cccc3c2C(C)(C)C(=O)N3)n1 [Example I-304] | < 50 nM | 1 nM
Cc1cc(N2CCN(CC(C)(C)O)CC2)ccc1Nc1ncc(C(F)(F)F)c(NCc2cccc3c2C(C)(C)C(=O)N3)n1 [Example I-305] | 50 to 250 nM | 2 nM
Cc1cc(N2CCN(C)CC2)ccc1Nc1ncc(C(F)(F)F)c(NCc2cccc3c2C(C)(C)C(=O)N3)n1 [Example I-307] | < 50 nM | 1 nM
Cc1cc(C2CCN(C)CC2)ccc1Nc1ncc(C(F)(F)F)c(NCc2cccc3c2C(C)(C)C(=O)N3)n1 [Example I-308] | < 50 nM | 0.8 nM
Cc1cc(C2CCN(CC(C)(C)O)CC2)ccc1Nc1ncc(C(F)(F)F)c(NCc2cccc3c2C(C)(C)C(=O)N3)n1 [Example I-309] | < 50 nM | 1 nM
CC(C)(O)CN1CCC(c2ccc(Nc3ncc(C(F)(F)F)c(NCc4cccc5c4C(C)(C)C(=O)N5)n3)c(OC(F)F)c2)CC1 [Example I-310] | 50 to 250 nM | 5 nM
Cc1cc(Nc2ncc(C(F)(F)F)c(NCc3cccc4c3C(C)(C)C(=O)N4)n2)c(F)cc1C1CCN(CC(C)(C)O)CC1 [Example I-311] | 50 to 250 nM | 15 nM
Cc1cc(C2CCN(CC(C)(C)O)CC2)c(C)cc1Nc1ncc(C(F)(F)F)c(NCc2cccc3c2C(C)(C)C(=O)N3)n1 [Example I-312] | 50 to 250 nM | 27 nM
Cc1c(Nc2ncc(C(F)(F)F)c(NCc3cccc4c3C(C)(C)C(=O)N4)n2)ccc(C2CCN(CC(C)(C)O)CC2)c1C [Example I-313] | < 50 nM | 0.5 nM
CCc1cc(C2CCN(CC(C)(C)O)CC2)ccc1Nc1ncc(C(F)(F)F)c(NCc2cccc3c2C(C)(C)C(=O)N3)n1 [Example I-314] | 50 to 250 nM | 5 nM
Cc1cc(N2CCN(CC(C)(C)O)CC2)ccc1Nc1ncc(Br)c(NCc2cccc3c2C(C)(C)C(=O)N3)n1 [Example I-317] | < 50 nM | 6 nM
Cc1cc([C@H]2CCCN(CC(C)(C)O)C2)ccc1Nc1ncc(Br)c(NCc2cccc3c2C(C)(C)C(=O)N3)n1 [Example I-319] | < 50 nM | 2 nM
Cc1cc([C@@H]2CCCN(CC(C)(C)O)C2)ccc1Nc1ncc(Br)c(NCc2cccc3c2C(C)(C)C(=O)N3)n1 [Example I-320] | < 50 nM | 0.9 nM
COc1cc(N2CCN(CC(C)(C)O)CC2)ccc1Nc1ncc(Br)c(NCc2cccc3c2C(C)(C)C(=O)N3)n1 [Example I-321] | < 50 nM | 2 nM
COc1cc(C2CCN(CC(C)(C)O)CC2)ccc1Nc1ncc(Br)c(NCc2cccc3c2C(C)(C)C(=O)N3)n1 [Example I-323] | < 50 nM | 0.9 nM
Cc1cc(Nc2ncc(Br)c(NCc3cccc4c3C(C)(C)C(=O)N4)n2)ccc1C1CCN(CC(C)(C)O)CC1 [Example I-324] | < 50 nM | 0.1 nM
Cc1cc(C2CCN(CC(O)C(F)(F)F)CC2)ccc1Nc1ncc(Cl)c(NCc2cccc3c2C(C)(C)C(=O)N3)n1 (centres unmarked) [Example I-326] | 50 to 250 nM | 2 nM
Cc1cc(N2CCN(C)CC2)ccc1Nc1ncc(Cl)c(NCc2cccc3c2C(C)(C)C(=O)N3)n1 [Example I-330] | < 50 nM | 3 nM
COc1cc(C2CCN(CC(C)(C)O)CC2)ccc1Nc1ncc(Cl)c(NCc2cccc3c2C(C)(C)C(=O)N3)n1 [Example I-331] | < 50 nM | 1 nM
Cc1cc(C2CCN(C)CC2)ccc1Nc1ncc(Cl)c(NCc2cccc3c2C(C)(C)C(=O)N3)n1 [Example I-332] | < 50 nM | 1 nM
